Row | melting point [°C] | SMILES
1 | 108 | O=C(CCCCCNC(=O)OCc1ccccc1)NCCc1ccc(O)cc1
2 | 181 to 183 | O=C(NNS(=O)(=O)c1ccccc1)c1cc2cc(Cl)ccc2o1
3 | 174 to 175 | NS(=O)(=O)c1cc(S(N)(=O)=O)c(-c2ccccc2)cc1F
4 | 203 to 205 | O=C(C=Cc1ccc(O)c([N+](=O)[O-])c1)NC1CCc2ccccc21 (centres undefined)
5 | 172 to 173 | N=C(N)NCCCOc1ccc2c(c1)N(Cc1ccccc1)C(=O)C(CC(=O)O)C2 (centres undefined)
6 | 95 to 98 | O=C(COc1cc(F)ccc1C(=O)NCc1cccc([N+](=O)[O-])c1)OCc1ccccc1
7 | 194 to 195 | O=c1[nH]c(=O)n(Cc2ccccc2)cc1C(F)(F)F
8 | 164 to 166 | O=C(CNS(=O)(=O)c1ccc(N2CCC(c3ccccc3)CC2)cc1)NO
9 | 178 to 180 | NC(=O)c1cc(NCc2ccc(F)cc2)c([N+](=O)[O-])cc1[N+](=O)[O-]
10 | 125 to 132 | CCc1noc(C=C(N)c2ccccc2)c1C(=O)NC
11 | 116 to 119 | CCCCOC(=O)C(C#N)=C1Nc2ccccc2O1
12 | 127 to 129 | O=S1NC(Cc2cc3ccccc3s2)=NO1 (centres undefined)
13 | 119 to 121 | COC1C(N(C)S(C)(=O)=O)c2cc(OCc3ccccc3)ccc2OC1(C)C (centres undefined)
14 | 84 to 86 | Cn1cccc1Cc1cccc(NC(N)=O)c1
15 | 208 to 210 | CC1c2ccccc2CN1NC(=O)c1ccc(Cl)c(S(N)(=O)=O)c1 (centres undefined)
16 | 170 | COC(=O)c1cn2c(C(F)(F)F)nnc2c2ccccc12

Row | melting point [°C] | SMILES
17 | 204 | CNC(=O)OC(Cn1cncn1)c1ccc(Cl)cc1Cl (centres undefined)
18 | 163 to 165 | COC(=O)C1Oc2ccccc2Cc2cccc(O)c2O1 (centres undefined)
19 | 103 | CCOC(=O)C(Sc1ccc(O)cc1)c1ccc(-c2cccs2)cc1 (centres undefined)
20 | 137 to 138 | CCC(=O)N1Cc2cn(C)nc2-c2cc(Cl)ccc21
21 | 142 | CC(C)c1ccc(C(=O)NC/C=C/c2ccccc2)cc1
22 | 138 to 141 | CC(=O)SCC(Cc1ccccc1)C(=O)Nc1cc2ccccc2cc1C(=O)O (centres undefined)
23 | 110 to 111 | CCOC(=O)c1ccccc1CCC(=O)Nc1cccc(/C=C/c2nc(C3CCC3)cs2)c1
24 | 262 to 266 | CC(C)(CO)n1c(Cc2ccccc2)nc2c(Cl)nc3ccccc3c21
25 | 146 to 148 | Cc1cc(NS(=O)(=O)c2ccccc2)cc(C)c1SC[N+](=O)[O-]
26 | 199 to 200 | COC(=O)c1ccccc1N=CNc1nnn[nH]1
27 | 150 to 152 | COCCOc1ccnc2c(NC(=O)c3c(Cl)cccc3Cl)cccc12
28 | 148 to 149 | Cc1ccc(S(=O)(=O)NCC(=O)c2ccccc2)cc1
29 | 150 to 153 | CC(=O)N(Cc1ccccc1)c1c(F)c(F)cc(F)c1C(=O)O
30 | 177 to 179 | CCOC(=O)C1C(=O)C=C(c2ccccc2)N=C1c1ccccc1 (centres undefined)
31 | > 300 | COc1ccc(-c2[nH]nc3c2C(=O)c2c(NC(=O)CCNc4ccncc4)cccc2-3)cc1

Continued, compound first:

Row | SMILES | melting point [°C]
32 | COc1ccnc(CCc2nc3cc(-c4ccsc4)cnc3[nH]2)c1 | 154 to 155
33 | COc1ccc(-c2ncnc(C(F)(F)F)c2Cl)cc1 | 104 to 106
34 | COC(=O)[C@H](CCSC)NC(=O)c1ccc(/C=C(/Cn2ccnc2)c2ccc(F)cc2)cc1 | 54 to 57
35 | CCc1cccc(-c2[nH]c(C(C)C)nc2-c2cccc(-c3ccc(S(C)(=O)=O)cc3)c2)n1 | 108 to 110
36 | NS(=O)(=O)Oc1ccc(I)cc1 | 146 to 147
37 | COC(=O)C(C)(C)Cc1[nH]c2cc(OC)ccc2c1SC(C)(C)C | 133
38 | Cc1cc(C)cc(S(=O)(=O)c2c(C(=O)O)[nH]c3ccc(Cl)cc23)c1 | 277 to 278
39 | COc1cc(C(=O)NNC(=O)c2occ(-c3ccccc3)c2-c2ccccc2)ccc1O | 216 to 220
40 | O=C1Nc2cc3c(cc2C12COc1cc4c(cc12)CCO4)OCCO3 (centres undefined) | > 250
41 | O=c1[nH]c2ccc(CCN3CCN(c4ccc5ncccc5c4)CC3)cc2o1 | 200
42 | CC(C)c1nc(CO)n(Cc2cnc3ccccc3c2)c1Sc1cc(Cl)cc(Cl)c1 | 167 to 170
43 | CCC12CCC(=O)C=C1c1c(cc(OCC#N)c(Cl)c1Cl)C2 (centres undefined) | 171 to 172
44 | O=c1cnc(-c2c(F)cccc2F)n[nH]1 | 219 to 226
45 | [N-]=[N+]=NC1=C([C@H]2CC[C@H](c3ccc(Cl)cc3)CC2)C(=O)c2ccccc2C1=O | 130 to 135
46 | CC(=NO)c1nc(N)nc(N)c1-c1ccc(Cl)cc1 | 256 to 259
47 | O=c1oc(-c2cc(C(F)(F)F)cc(C(F)(F)F)c2)cc(O)c1SCc1ccccc1 | 80 to 82
48 | CCS(=O)c1nc(N2CCNCC2)c2sc3nc(-c4ccccc4)cc(C)c3c2n1 (centres undefined) | 165 to 170
49 | COc1ccc(C(=O)Nc2c(Cl)cncc2Cl)c2c1OCC2CC(=O)NCc1ccc(Cl)cc1 (centres undefined) | 283 to 286
50 | N#CC1=C(c2cccs2)Nc2n[nH]cc2C1c1cccc2ccccc12 (centres undefined) | 214
51 | COc1cccc(N(C)C(=S)Oc2ccc3ccccc3c2)n1 | 95.5 to 97
52 | CCc1nc(-c2cnccn2)no1 | 52 to 57
53 | Cc1nc(C)c(C(C)(O)c2ccoc2)o1 (centres undefined) | 93 to 95
54 | NS(=O)(=O)OCCOc1cccc(Cl)c1 | 66 to 69

Row | SMILES | melting point [°C]
55 | Cc1cc(O)ccc1-c1noc2cc(O)ccc12 | 229 to 231
56 | [N-]=[N+]=NC1CC(n2cc(I)c(=O)[nH]c2=O)OC1CO (centres undefined) | 126 to 130
57 | c1ccc(C(NCc2ccc(CNC(c3ccccc3)c3ccccc3)cc2)c2ccccc2)cc1 | 92 to 94
58 | CC[C@H](C)C(OCc1ccccc1F)[C@H]1[C@H]([N+](=O)[O-])[C@H](c2ccsc2)N[C@@H]1C(=O)NCCC(=O)O (some centres undefined) | 113 to 114
59 | CC(C)c1cn2ccccc2c1S(=O)(=O)c1ccc(OCCCN2CCC(c3ccccc3)CC2)cc1 | 79 to 80
60 | CC(=O)OC1C(CO)OC(n2cnc3c(N)ncnc32)C1O (centres undefined) | 195 to 201
61 | CC(Oc1ccc(Cl)cc1Cl)c1nnc(N)s1 (centres undefined) | 119 to 123
62 | CCCCCCCCCCCCS(=O)(=O)c1ccc2c(c1)C(=O)c1c(c(O)c3ccccc3c1O)C2=O | 185 to 186
63 | Cc1c(SCCCl)ccnc1CSc1nc2ccccc2[nH]1 | 178 to 180
64 | CCc1ccc2c(c1)C=Cc1cc(C)ccc1C2c1cn(Cc2ccc(C(=O)Nc3nnn[nH]3)o2)c(=O)[nH]c1=S (centres undefined) | 260
65 | Cc1cc(C)n(-c2nc(Nc3ccc(Cl)c(Cl)c3)c3ccccc3n2)n1 | 224 to 226
66 | CCC1(c2cn(-c3c(Cl)cc(C(F)(F)F)cc3Cl)nc2C#N)CC1 | 118 to 119
67 | CC(C)(C)c1nc(Cl)c2ccccc2c1-c1ccccc1 | 139 to 140
68 | O=c1[nH]c(=O)n(C2CC(F)C(CO)O2)cc1C#CI (centres undefined) | 140
69 | O=C1c2cc([N+](=O)[O-])ccc2CC1Br (centres undefined) | 102 to 105
70 | NCC1Cc2cc(Cl)c3[nH]c(=O)ccc3c2O1 (centres undefined) | > 300
71 | O=C(Nc1ccc(C(=O)N2Cc3ccccc3Cc3ccccc32)cc1)c1cc(Cl)ccc1Cl | 203 to 231
72 | COc1nc(C(Cl)(Cl)Cl)c(Cl)c(OC)c1Cl | 67 to 69
73 | CN1c2ccc(-c3cccc4ccccc34)cc2S(=O)(=O)c2cc(-c3cccc4ccccc34)ccc21 | 221 to 225
74 | COC(=O)c1ccc(N)cc1S(=O)(=O)NC(C)(C)C | 198 to 199
75 | COc1ccc(Oc2c(Br)cc(C#N)cc2Br)cc1Cc1ccc(=O)[nH]n1 | 214 to 216
76 | N#Cc1cnn2c(C(F)(F)F)cc(-c3ccc(Cl)cc3Cl)nc12 | 180
77 | Cc1nccn1S(=O)(=O)c1c[nH]cn1 | 158 to 159

Row | SMILES | melting point [°C]
78 | COC(=O)c1ccc(OCCNC(=O)C2Cc3ccccc3N2S(=O)(=O)c2ccc(-c3ccc(F)cc3OC)cc2)cc1F (centres undefined) | 73 to 80
79 | NC1=CN(Cc2ccc(Cl)cc2Cl)CN=C1 | 104 to 105
80 | O=C(C=Cc1ccc(F)cc1)C(c1ccccc1)c1ccccc1 | 122 to 124
81 | CCOC(=O)CCn1ccn([C@H]2CCc3c(F)cc(F)cc3C2)c1=S | 105 to 107
82 | O=C1Nc2ncc(Br)cc2C1(Br)Br | 157 to 158
83 | CCOC(=O)C1CCC(c2ccccc2)n2c(=O)n(CCl)c(=O)n21 (centres undefined) | 104 to 106
84 | Cc1noc(NS(=O)(=O)c2ccccc2-c2ccc(-c3ncco3)cc2CN(CC(F)(F)F)C(C)C)c1C | 80 to 90
85 | CN1CC=C(c2c[nH]c3ccc(Sc4ccccc4)cc23)CC1 | 225 to 228
86 | NC(=O)C(c1ccc(C(=O)O)cc1)C(Cc1ccccc1)c1ccccc1N1CCCCC1 (centres undefined) | 214 to 215
87 | CC1(C)CCC(C)(C)c2cc(C(O)C#Cc3ccc(C(=O)O)c(O)c3)ccc21 (centres undefined) | 203 to 204
88 | O=C(CCCCCC1(C(=O)O)CC1)CCCCCC1(C(=O)O)CC1 | 122 to 123
89 | CC(=O)c1ccccc1OC1SCC(O)C(O)C1O (centres undefined) | 102 to 105
90 | O=C1Nc2ccccc2C(c2ccccc2)=NC1NC(=S)c1cccc(C(F)(F)F)c1 (racemic) | 230 to 232
91 | Cc1sc2nc(N(CCO)CCO)nc(NCc3ccccn3)c2c1Br | 152
92 | O=c1cc(Oc2ccccc2)c(-c2nc[nH]n2)cn1-c1ccccc1 | 275 to 276
93 | CCOC(=O)C1=C(N)N=C(SCC)C(C(=O)OCC)C1c1cccc([N+](=O)[O-])c1 (centres undefined) | 187
94 | COCOc1nn(-c2ccccc2)cc1/C=C/c1csc(-c2ccccc2C(=O)OC)n1 | 134 to 135
95 | COc1ccc(C2CCN(C(N)=O)CC2)cc1OC1CCCC1 | 149 to 150
96 | COc1cc2ncn([C@H](C)[C@](O)(Cn3cncn3)c3ccc(F)cc3F)c(=O)c2cc1OC | 157 to 159
97 | COC(=O)C1=C(CBr)Nc2ncnn2C1c1cccs1 (centres undefined) | 155
98 | COc1ccc(C(=O)c2c(N)sc(C)c2C)cc1OC | 172 to 173
99 | COc1ccnc(CN2C(=O)C(NC(=O)Nc3cccc(C)c3)N=C(c3ccccc3F)c3ccccc32)c1 (centres undefined) | 195 to 200
